In experiment [1] the target is KLK1 (Homo sapiens, UniProt P06870). The experiment is described as follows: in vitro serine protease inhibition profile: KLK1. Format: biochemical.
For experiment [2], the target named is tryptase (Homo sapiens, UniProt Q15661). The experiment is described as follows: in vitro serine protease inhibition profile: tryptase. The format is biochemical.
Experiment [3] addresses T1, plasmin (Homo sapiens, UniProt P00747).
T1 construct: panel of serine proteases: uPA, tPA, thrombin, plasmin, FXIIa
The experiment is described as follows: in vitro serine protease inhibition profile: plasmin. The format is biochemical.

In experiment [4] the target is T2, KLK8 (Homo sapiens, UniProt O60259).
T2 sequence (O60259 33-260): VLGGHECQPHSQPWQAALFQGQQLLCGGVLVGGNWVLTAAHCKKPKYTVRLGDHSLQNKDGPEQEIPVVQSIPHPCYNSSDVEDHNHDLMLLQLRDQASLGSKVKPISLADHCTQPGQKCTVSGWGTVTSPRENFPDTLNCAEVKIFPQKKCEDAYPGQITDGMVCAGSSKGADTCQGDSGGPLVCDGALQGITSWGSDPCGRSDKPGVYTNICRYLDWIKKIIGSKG
As to the kind of experiment: in vitro serine protease inhibition profile: KLK8. The format is biochemical.

Experiment [5] deals with tPA (Homo sapiens, UniProt P00750). The experiment is described as follows: in vitro serine protease inhibition profile: tPA. The format is biochemical.
The target in experiment [6] is KLK2 (Homo sapiens, UniProt P20151). The experiment is described as follows: in vitro serine protease inhibition profile: KLK2. Format: biochemical.
Experiment [7] deals with KLK4 (Homo sapiens, UniProt Q9Y5K2). As to the kind of experiment: in vitro serine protease inhibition profile: KLK4. The format is biochemical.
Experiment [8] deals with T3, matriptase (Homo sapiens, UniProt Q9Y5Y6).
T3 sequence (Q9Y5Y6 1-855): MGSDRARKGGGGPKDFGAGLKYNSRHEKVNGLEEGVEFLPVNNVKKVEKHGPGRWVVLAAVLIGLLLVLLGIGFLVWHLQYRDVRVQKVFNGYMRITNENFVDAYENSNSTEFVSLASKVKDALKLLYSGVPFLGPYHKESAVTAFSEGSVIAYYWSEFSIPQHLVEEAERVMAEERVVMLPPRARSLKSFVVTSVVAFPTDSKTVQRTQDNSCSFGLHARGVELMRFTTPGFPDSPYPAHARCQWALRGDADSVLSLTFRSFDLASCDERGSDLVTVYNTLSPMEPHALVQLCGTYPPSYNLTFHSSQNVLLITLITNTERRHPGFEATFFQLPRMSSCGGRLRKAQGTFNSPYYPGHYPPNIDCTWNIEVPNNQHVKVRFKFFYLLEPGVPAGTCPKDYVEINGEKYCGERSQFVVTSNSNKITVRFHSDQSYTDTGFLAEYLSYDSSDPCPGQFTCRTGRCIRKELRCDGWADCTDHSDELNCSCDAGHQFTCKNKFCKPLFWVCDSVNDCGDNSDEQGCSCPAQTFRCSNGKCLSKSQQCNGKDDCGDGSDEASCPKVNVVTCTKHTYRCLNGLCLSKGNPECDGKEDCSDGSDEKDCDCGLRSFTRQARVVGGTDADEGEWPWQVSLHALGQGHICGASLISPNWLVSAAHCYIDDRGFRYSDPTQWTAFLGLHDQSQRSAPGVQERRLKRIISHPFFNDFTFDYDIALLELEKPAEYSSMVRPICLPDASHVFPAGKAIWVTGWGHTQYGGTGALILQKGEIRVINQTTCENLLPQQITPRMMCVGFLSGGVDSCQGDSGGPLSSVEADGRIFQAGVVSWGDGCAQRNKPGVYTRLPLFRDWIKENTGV
The experiment is described as follows: in vitro serine protease inhibition profile: matriptase. The format is biochemical.

Experiment [9] concerns the target T4, HNE (Homo sapiens, UniProt P08246).
T4 sequence (P08246 30-267): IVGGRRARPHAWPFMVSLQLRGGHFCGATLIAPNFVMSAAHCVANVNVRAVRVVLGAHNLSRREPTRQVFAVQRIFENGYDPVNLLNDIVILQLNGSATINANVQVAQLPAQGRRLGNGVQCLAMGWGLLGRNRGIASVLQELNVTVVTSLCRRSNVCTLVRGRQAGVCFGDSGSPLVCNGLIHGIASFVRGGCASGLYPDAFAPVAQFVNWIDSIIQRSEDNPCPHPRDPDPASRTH
As to the kind of experiment: in vitro serine protease inhibition profile: HNE. The format is biochemical.

The target in experiment [10] is uPA (Homo sapiens, UniProt P00749). The experiment is described as follows: in vitro serine protease inhibition profile: uPA. The format is biochemical. The note with it: read-out: IC50 uPA.
Experiment [11] has as its target T5, thrombin (Homo sapiens, UniProt P00734).
T5 construct: panel of serine proteases: uPA, tPA, thrombin, plasmin, FXIIa
As to the kind of experiment: in vitro serine protease inhibition profile: thrombin. Format: biochemical. The settings on record: read-out: IC50 thrombin.

Experiment [12] deals with post-colitis rats. As to the kind of experiment: post-colitis rat model for visceral pain, visceromotor response (VMR) to colorectal distension. The note with it: post-colitis rats, 10 mg/kg. As to the method: Male Sprague-Dawley rats (200-225 g; Charles River, Italy) were used in all experiments. Rats were housed at a constant room temperature (22±2° C.) and humidity (60%). The animals had unlimited access to water and food and were kept on a 12 h:12 h day-night cycle. They were allowed to acclimatize for at least 1 week before the start of the experiments.
In this set-up, a mild colitis was induced in the post-colitis group on day 0, using a TNBS-enema. The control group received an intrarectal administration with 0.9% NaCl. The presence of colitis was verified by a colonoscopy on day 3. From day 10 onwards, a colonoscopy was performed every 4 days to follow-up the healing of the colonic mucosa. When the colonic mucosa was completely healed, further experiments were performed 3 days later. […] After the VMR measurement, the animals were sacrificed.
TNBS-colitis was induced at day 0 using a TNBS-enema (4 mg TNBS, 50% ethanol). […] Control animals received 0.25 ml 0.9% NaCl intrarectally. The animals were kept in a tail-up position during 1 min and were then allowed to recover in a Trendelenburg position.
Electromyographic (EMG) electrodes were implanted into the external abdominal muscle and 3 days later, the VMR experiment was performed in conscious rats. A lubricated balloon (length 5 cm) was introduced into the colorectum of the animal and connected to a barostat (Distender Series II Barostat, G&J Electronics, Canada). The EMG electrodes were attached to a data-acquisition system and a phasic distension protocol (10-20-30-40-60 mmHg, 20 s, 4 min interval) was sent through the barostat. […] The VMR was quantified using the area under the curve (AUC) of the EMG signal during the distension (20 s) corrected for the EMG signal before the distension (20 s).
22.0. The results of the VMR experiments analyzed using a Generalized Estimating Equations (GEE) test with Least Significant Difference (LSD) post-hoc test. A p-value<0.05 was considered as being statistically significant. The graphs were made with GraphPad Prism 6.0.
Visceral sensitivity was assessed using the visceromotor responses (VMRs) to a colorectal distension, shown in the graphs below as area under the curve (AUC; y-axis; μV.20 s-1) for each distension pressure (x-axis; mmHg). Serine proteases seem to play an important role in the pathogenesis of visceral pain.

For experiment [13], the target named is T6, cathepsinG (Homo sapiens, UniProt P08311).
T6 sequence (P08311 21-244): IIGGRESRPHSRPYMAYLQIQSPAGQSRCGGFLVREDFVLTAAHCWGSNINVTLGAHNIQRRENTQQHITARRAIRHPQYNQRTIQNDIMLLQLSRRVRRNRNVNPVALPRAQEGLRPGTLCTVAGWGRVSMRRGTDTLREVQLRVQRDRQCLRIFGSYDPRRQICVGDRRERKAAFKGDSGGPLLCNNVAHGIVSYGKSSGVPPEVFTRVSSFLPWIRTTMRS
The experiment is described as follows: in vitro serine protease inhibition profile: cathepsinG. Format: biochemical.

Experiment [14] deals with T7, FXIIa (Homo sapiens, UniProt P00748).
T7 construct: panel of serine proteases: uPA, tPA, thrombin, plasmin, FXIIa
As to the kind of experiment: in vitro serine protease inhibition profile: FXIIa. The format is biochemical.

Like-named read-outs stand apart in the source and are kept apart here.

Sequence of KLK2 (P20151 25-261, species assumed): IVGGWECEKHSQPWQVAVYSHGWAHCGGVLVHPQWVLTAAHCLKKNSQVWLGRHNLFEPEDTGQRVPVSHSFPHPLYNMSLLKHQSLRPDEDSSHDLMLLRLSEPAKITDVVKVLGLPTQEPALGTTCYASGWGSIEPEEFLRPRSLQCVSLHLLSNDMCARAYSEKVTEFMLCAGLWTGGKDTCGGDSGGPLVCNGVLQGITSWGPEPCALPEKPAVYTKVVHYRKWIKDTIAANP
Sequence of tPA (P00750 36-562, species assumed): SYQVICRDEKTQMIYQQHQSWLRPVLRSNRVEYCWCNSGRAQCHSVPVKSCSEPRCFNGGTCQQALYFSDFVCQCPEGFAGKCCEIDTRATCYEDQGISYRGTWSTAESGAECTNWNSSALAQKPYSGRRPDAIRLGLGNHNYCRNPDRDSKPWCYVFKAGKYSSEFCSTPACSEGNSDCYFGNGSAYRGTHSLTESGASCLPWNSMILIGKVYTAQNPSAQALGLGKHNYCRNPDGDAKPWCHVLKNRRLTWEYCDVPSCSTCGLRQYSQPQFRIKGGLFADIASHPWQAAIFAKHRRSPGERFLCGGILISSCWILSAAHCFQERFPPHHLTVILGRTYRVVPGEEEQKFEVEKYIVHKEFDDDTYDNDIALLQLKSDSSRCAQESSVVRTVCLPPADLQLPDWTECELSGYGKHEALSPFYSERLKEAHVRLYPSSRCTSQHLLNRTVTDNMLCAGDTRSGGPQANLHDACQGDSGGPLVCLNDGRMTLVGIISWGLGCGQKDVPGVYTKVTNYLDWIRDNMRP
Sequence of KLK1 (P06870 25-262, species assumed): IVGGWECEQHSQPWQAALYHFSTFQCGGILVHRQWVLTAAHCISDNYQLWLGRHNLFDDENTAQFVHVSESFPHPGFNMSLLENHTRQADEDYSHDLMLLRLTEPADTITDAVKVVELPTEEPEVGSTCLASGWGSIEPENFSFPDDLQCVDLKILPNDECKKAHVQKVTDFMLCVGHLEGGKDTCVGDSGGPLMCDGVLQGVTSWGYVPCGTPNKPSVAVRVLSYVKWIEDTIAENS
Sequence of tryptase (Q15661 31-275): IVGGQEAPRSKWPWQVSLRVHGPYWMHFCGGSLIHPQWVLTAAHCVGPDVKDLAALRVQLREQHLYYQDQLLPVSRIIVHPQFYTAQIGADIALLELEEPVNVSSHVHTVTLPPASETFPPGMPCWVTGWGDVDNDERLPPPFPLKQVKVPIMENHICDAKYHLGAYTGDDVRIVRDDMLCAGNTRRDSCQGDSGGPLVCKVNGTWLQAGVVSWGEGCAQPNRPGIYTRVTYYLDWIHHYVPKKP
T1 sequence (P00747 581-810 limits assumed, species assumed): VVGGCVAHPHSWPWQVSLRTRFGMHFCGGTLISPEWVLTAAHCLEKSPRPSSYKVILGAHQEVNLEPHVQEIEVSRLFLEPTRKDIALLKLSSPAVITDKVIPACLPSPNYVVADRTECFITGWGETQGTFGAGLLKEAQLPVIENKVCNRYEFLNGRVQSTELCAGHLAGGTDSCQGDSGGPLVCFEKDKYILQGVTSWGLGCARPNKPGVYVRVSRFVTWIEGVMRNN
T1 sequence (P00747 97-580 partner limits assumed, species assumed): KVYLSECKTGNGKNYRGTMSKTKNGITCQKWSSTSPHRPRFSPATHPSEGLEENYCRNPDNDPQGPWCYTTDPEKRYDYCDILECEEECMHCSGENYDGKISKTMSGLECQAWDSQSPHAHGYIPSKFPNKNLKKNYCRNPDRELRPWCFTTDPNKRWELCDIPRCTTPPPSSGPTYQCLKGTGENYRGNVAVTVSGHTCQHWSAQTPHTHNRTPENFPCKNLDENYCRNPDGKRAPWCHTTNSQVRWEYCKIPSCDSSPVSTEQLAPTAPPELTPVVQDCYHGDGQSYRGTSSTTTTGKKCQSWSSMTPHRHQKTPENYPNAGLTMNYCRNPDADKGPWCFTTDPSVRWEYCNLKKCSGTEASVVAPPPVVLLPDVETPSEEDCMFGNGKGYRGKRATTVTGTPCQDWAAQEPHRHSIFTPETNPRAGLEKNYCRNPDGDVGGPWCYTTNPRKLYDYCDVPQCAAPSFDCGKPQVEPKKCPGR
Sequence of KLK4 (Q9Y5K2 31-254, species assumed): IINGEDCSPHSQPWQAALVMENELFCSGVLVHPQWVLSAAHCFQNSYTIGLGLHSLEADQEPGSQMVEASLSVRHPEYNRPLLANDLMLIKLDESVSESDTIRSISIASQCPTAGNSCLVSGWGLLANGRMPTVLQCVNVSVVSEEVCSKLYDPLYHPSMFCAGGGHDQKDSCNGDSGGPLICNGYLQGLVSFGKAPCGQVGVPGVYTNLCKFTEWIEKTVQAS
T7 sequence (P00748 373-615 limits assumed, other chains not shown): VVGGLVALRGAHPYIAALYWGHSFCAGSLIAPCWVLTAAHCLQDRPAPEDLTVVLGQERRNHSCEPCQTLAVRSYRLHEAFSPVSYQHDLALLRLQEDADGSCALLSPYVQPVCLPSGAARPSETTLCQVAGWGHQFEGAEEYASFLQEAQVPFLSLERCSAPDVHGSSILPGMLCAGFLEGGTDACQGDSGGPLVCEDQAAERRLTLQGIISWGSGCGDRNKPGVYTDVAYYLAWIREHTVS

On to `N=C(N)Nc1ccc(CC(NC(=O)OCc2ccccc2)P(=O)(Oc2ccccc2)Oc2ccccc2)cc1` (centres unmarked) [Compound 3], for which the half-maximal inhibitory concentration (IC50) was above 2500 nM in [1]; 83 nM in experiment [2]; above 2500 nM in [3]; 42 nM in [4]; above 2500 nM in experiment [5]; 90 nM in [6]. The IC50 is 12 nM in experiment [7] (read-out: IC50 KLK4), 150 nM in [8] and above 2500 nM in [9].

For `N=C(N)c1ccc2cc(OC(=O)c3ccc(N=C(N)N)cc3)ccc2c1` [Nafamostat], the IC50 in experiment [1] (read-out: IC50 KLK1) is around 1000 nM; in [2] (read-out: IC50 tryptase), below 1 nM; in [10], below 1 nM; in [4] (read-out: IC50 KLK8), around 15 nM; in experiment [5] (read-out: IC50 tPA), above 2500 nM; in experiment [6] (read-out: IC50 KLK2), around 100 nM. The IC50 in experiment [11] is around 500000 nM; in experiment [9] (read-out: IC50 HNE), above 2500 nM. For the same compound, in experiment [12], the “effect on VMRs (visceral pain)” value was “no significant effect on visceral pain could be detected”.

On to `COC(=O)NC(Cc1ccc(NC(=N)N)cc1)P(=O)(Oc1ccc(NC(C)=O)cc1)Oc1ccc(NC(C)=O)cc1` (centres unmarked) [Compound 2], for which the IC50 in [13] was 61 nM; in experiment [1], above 2500 nM; in experiment [2], 3 nM; in experiment [3], above 2500 nM; in [14] it was 3140 nM; in experiment [4], 13 nM. The IC50 in [5] is above 2500 nM; in experiment [6], 315 nM; in experiment [7] it was 26 nM; in [8] it was 8 nM; in experiment [9], above 2500 nM.

Values taken from US11638712B2, “Bis(acetamidophenyl) guanidinophenylethylphosphonates for use in the prevention and/or treatment of PAR-related diseases” (Universiteit Antwerpen, priority 2016, dated 2023).
